Data on two compounds can be found in publication PMC7616174, “Development of Novel 4-Arylpyridin-2-one and 6-Arylpyrimidin-4-one Positive Allosteric Modulators of the M1 Muscarinic Acetylcholine Receptor” (ChemMedChem, 2020).

Where two headings read alike, the source gives them in different places.

The target in assay [1] is T1, hM1 mAChR (Homo sapiens, UniProt P11229).
T1 construct: expressed in transfected cells
T1 sequence (P11229 1-460): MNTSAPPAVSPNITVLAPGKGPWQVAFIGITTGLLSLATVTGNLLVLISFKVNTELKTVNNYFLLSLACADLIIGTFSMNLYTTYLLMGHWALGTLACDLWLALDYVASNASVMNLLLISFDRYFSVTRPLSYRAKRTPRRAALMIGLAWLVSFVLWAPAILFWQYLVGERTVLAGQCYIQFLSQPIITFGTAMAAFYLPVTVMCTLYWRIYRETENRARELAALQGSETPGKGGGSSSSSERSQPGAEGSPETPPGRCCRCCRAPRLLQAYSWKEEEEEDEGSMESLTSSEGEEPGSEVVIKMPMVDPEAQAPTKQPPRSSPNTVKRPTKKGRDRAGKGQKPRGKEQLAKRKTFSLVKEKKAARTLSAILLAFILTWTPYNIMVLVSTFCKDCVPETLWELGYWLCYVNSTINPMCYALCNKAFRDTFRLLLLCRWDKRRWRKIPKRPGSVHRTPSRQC
In words: IP1 accumulation assay (ACh concentration-response curves in absence or presence of modulator). It counts as cell-based. Particulars: for ΔpEC50 [1 μM]: change in ACh pEC50 in presence of M1 PAM compared to control curve / activation at 1 µM: 1 μM modulator; for ΔpEC50 [1 μM]: change in ACh pEC50 in presence of M1 PAM compared to control curve / activation at 1 µM / ΔpEC50 [10 μM]: change in ACh pEC50 in presence of M1 PAM compared to control curve / activation at 10 µM: FlpIn CHO hM1 cells, mean ± SEM, 3 experiments; for activation at 1 µM: read-out: Δbaseline [1 μM]: change in basal response in presence of M1 PAM compared to control curve; for ΔpEC50 [10 μM]: change in ACh pEC50 in presence of M1 PAM compared to control curve / activation at 10 µM: 10 μM modulator; for activation at 10 µM: read-out: Δbaseline [10 μM]: change in basal response in presence of M1 PAM compared to control curve; for αβ (functional cooperativity with ACh) / τB (intrinsic efficacy of the modulator): antilog, in parentheses; for log αβ (logarithm of functional cooperativity between ACh and modulator): pKB constrained to binding value. As for the experimental part: Functional activity of the synthesized analogues as racemic mixtures was investigated in IP1 accumulation assays at the M1 mAChR, as described previously.[13–14] ACh concentration-response curves were generated in the absence or presence of a 1 and 10 μM concentration of each modulator. The change in baseline activity (Δbaseline) is an approximate measure of direct allosteric agonism (τB), whereas the pEC50 shift (ΔpEC50) is an approximate measure of functional cooperativity (αβ) of each modulator with ACh in the investigated signalling pathway. We aimed to identify modulators with various degrees of allosteric agonism and modulatory effects on ACh response, as these could generate distinct in vivo outcomes for applications in different conditions in the CNS or gastrointestinal (GI) tract.[[10g,h,j]]
(§1) The compounds were then fully characterised in two functional assays (Figure 2C and D); the Gq-coupled IP1 accumulation assay (Figure S2), which was used for the initial screening of the compounds, and a β-arrestin 2 recruitment assay (Figure S3). The operational efficacy (τB) values for the modulators and their functional cooperativity estimates with ACh (logαβACh) at both signalling pathways were estimated by applying an operational model of allosterism and agonism to the data [Eq. (3)],[16] and are listed in Table 5.
FlpIn CHO cells stably expressing the hM1 mAChR were seeded at 25000 per well of 96-well transparent cell culture plates and grown overnight. […] Cells were then stimulated with increasing concentration of ACh in the absence or presence of increasing concentrations of each modulator for 1 h at 37°C. […] Seven μL of cell lysates were transferred into wells of 384-well Proxiplates (Perki-nElmer Life Sciences), and IP1 levels were measured using the IP-One assay kit (Cisbio, Codolet, France). […] The signal was expressed as the HTRF ratio, interpolated from the standard curve, and normalized to the maximum response to ACh.
Changes in both baseline and pEC50 were quantified by subtracting the estimates at each M1 PAM concentrations with the control values. Propagation of the error on baseline and potency values were determined as follows [Eq. (1)]: σΔ=σPAM2+σcont.2 where σΔ is the standard error of the mean (SEM) for the change in value, and σPAM and σcont. are the SEM from the three-parameter logistic equation analysis in presence or absence of M1 PAM, respectively.
(§2) Functional interaction studies between ACh and allosteric modulators in IP1 and β-arrestin 2 recruitment assays were analysed according to a three-parameter logistic equation or the following operational model of allosterism and agonism [Eq. (3)].[16] E=Basal+(Em−Basal)([A](KB+αβ[B])+τB[B]EC50)^n/EC50n(KB+[B])^n+([A](KB+αβ[B])+τB[B]EC50)^n where Em is the maximal possible system response, and Basal is the response in the absence of agonist. [A] and [B] are concentrations of orthosteric and allosteric ligands, respectively. KB is the equilibrium dissociation constant of allosteric ligand, and EC50 is the concentration of orthosteric agonist required to achieve half maximal response. α and β represent the magnitude of the allosteric effects on orthosteric ligand affinity and efficacy, respectively; τB is the efficacy of allosteric ligand, and n is the slope factor of the transducer function that links occupancy to response.

For assay [2], the target named is T1, hM1 mAChR. In words: Whole-cell [3H]NMS equilibrium competition radioligand binding. Particulars: [3H]NMS binding; for α (binding cooperativity with ACh): antilog. As for the experimental part: To determine the affinity (pKB) of the allosteric modulators for the allosteric site, and their binding cooperativity with ACh (log αACh) at the M1 mAChR, whole cell equilibrium competition binding studies were performed, using [^3H]NMS to label the orthosteric site.
FlpIn Chinese hamster ovary (CHO) cells stably expressing the hM1 mAChR were grown in Dulbecco’s modified Eagle’s medium (DMEM) (Invitrogen, Carlsbad, CA) supplemented with 5% foetal bovine serum (FBS) (Thermo-Trace, Melbourne, Australia) and 300 μg/mL G418 (Invitrogen, Carlsbad, CA). The cells were plated at 50,000 cells per well of 96-well white clear bottom plates (Greiner Bio-one, Kremsmünster, Austria), and were grown overnight. The following day, cells were washed twice with Phosphate Buffered Saline (PBS), and incubated with increasing concentrations of ACh (Sigma) in the absence or presence of increasing concentrations of each modulator and 0.2 nM [^3H]NMS (PerkinElmer Life Sciences) in binding buffer (20 mM HEPES, 100 mM NaCl, 10 mM MgCl2, pH 7.4) for 5 h at room temperature. Nonspecific binding was determined using atropine at the final concentration of 10 μM. The assays were terminated by rapid removal of the unbound radioligand followed by two washes with 100 μL/well ice-cold 0.9% NaCl buffer. Radioactivity was determined by addition of 100 μL/well Ultima gold (PerkinElmer Life Sciences) and counting in a MicroBeta plate reader (PerkinElmer Life Sciences).
Binding interaction studies with allosteric ligands were fitted to the following allosteric ternary complex model [Eq. (2)][15] Y=Bmax|A|/[Λ]+[KAKB/α^′[B]+KB][1+[I]/K1+[B]/KB+α[I][B]/KIKB] where Bmax is the total number of receptors, [A], [B] and [I] denote the concentrations of radioligand, allosteric modulator, and orthosteric ligand, respectively; KA, KB and KI are their respective equilibrium dissociation constants. α’ and α are the affinity cooperativity factors between the allosteric ligand and radioligand or the allosteric modulator and ACh, respectively. Values of α or α’ > 1 denote positive cooperativity, values < 1 but > 0 denote negative cooperativity, and a value of 1 indicates neutral coopera-tivity.

The target of a further assay is T2, M1 mAChR (Homo sapiens, UniProt P11229).
T2 construct: expressed in transfected cells; host or cells: parental FlpIn CHO cells (transient, PEI)
T2 sequence (P11229 1-460): T1 sequence (P11229 1-460)
Briefly: β-arrestin 2 recruitment assay (BRET). It counts as cell-based. Particulars: for log αβ (logarithm of functional cooperativity between ACh and modulator): pKB constrained to binding value.
From the text: as §1
Parental FlpIn CHO cells were plated at 30000 cells/well of 96-well white Culture plates (Perkin Elmer Life Sciences) and transiently transfected with 10 ng/well of M1 Renilla luciferase (Rluc)-8 and 40 ng/well of YFP-β-arrestin 2 using linear polyethyleneimine (PEI/DNA ratio 6:1) diluted in 150 mM NaCl. DNA:PEI complexes were formed by 15 min incubation at room temperature then added to the cells and incubated at 37°C for 24 h prior to use. Cells were then washed and equilibrated in Hanks’ balanced salt solution for 1 h at 37°C. Coelenterazine h at a final concentration of 5 μM was added to each well, followed by addition of increasing concentrations of ACh in the absence or presence of increasing concentrations of each modulator. Lumines-cence and fluorescence signals were measured 5 min after agonist stimulation using the LUMIstar Omega plate reader (BMG LabTech, Offenburg, Germany). […] Data were then normalized to the maximum response to ACh.
as §2

Where [3] appears, read: IP1 accumulation, operational model.
[4] abbreviates: allosteric ternary complex model, mean ± SEM, read-out: pKB (negative logarithm of the allosteric modulator equilibrium dissociation constant) (converted).

On to `Cn1cc(-c2ccc(COc3ccccc3-c3ccn(C4CCCCC4=O)c(=O)c3)cc2)cn1` (stereo not shown) [Compound 13d, 4-(2-((4-(1-Methyl-1H-pyrazol-4-yl)benzyl)oxy)phenyl)-1-(2-oxocy-clohexyl)pyridin-2(1H)-one], for which, at hM1 mAChR [1], the “ΔpEC50 [1 μM]: change in ACh pEC50 in presence of M1 PAM compared to control curve” value was 0.29±0.05, the activation at 1 µM came out at 4.8 ± 1.4%, the “ΔpEC50 [10 μM]: change in ACh pEC50 in presence of M1 PAM compared to control curve” value is given as 1.31±0.06 and the activation at 10 µM amounted to 27 ± 1.5%. Besides, at hM1 mAChR [1] (IP1 accumulation), the “αβ (functional cooperativity with ACh)” value was determined as 30 and the “τB (intrinsic efficacy of the modulator)” value is recorded as 1. Also, the “log αβ (logarithm of functional cooperativity between ACh and modulator)” value (“log αβ” for short) at hM1 mAChR [1] (setting [3]) came out at 1.48±0.11. At hM1 mAChR [2] (setting [4]), the Kb is 29.5 µM. On hM1 mAChR [2] (antilog of pKB, in parentheses, read-out: KB (converted)), the Kb is 30 µM. Moreover, the “α (binding cooperativity with ACh)” value at hM1 mAChR [2] (in parentheses) is 52. Further, the “log αACh (logarithm of binding cooperativity between ACh and modulator)” value at hM1 mAChR [2] (mean ± SEM) worked out at 1.72±0.20. On M1 mAChR (antilog, in parentheses), the “αβ (functional cooperativity with ACh)” value was 14. For the same compound, the “log αβ” value at M1 mAChR (operational model) is recorded as 1.16±0.17.
Consider `Cn1cc(-c2ccc(COc3ccsc3-c3ccn(C4CCCCC4O)c(=O)c3)cc2)cn1` (stereo not shown) [Compound 7h, 1-(2-Hydroxycyclohexyl)-4-(3-((4-(1-methyl-1H-pyrazol-4-yl)benzyl)oxy)thiophen-2-yl)pyridin-2(1H)-one], for which, at hM1 mAChR [1], the “ΔpEC50 [1 μM]: change in ACh pEC50 in presence of M1 PAM compared to control curve” value is recorded as 1.88±0.37, the activation at 1 µM worked out at 70.8 ± 4%, the “ΔpEC50 [10 μM]: change in ACh pEC50 in presence of M1 PAM compared to control curve” value worked out at 2.28±0.77 and the activation at 10 µM is 90.3 ± 3.1%. Moreover, at hM1 mAChR [1] (IP1 accumulation), the “αβ (functional cooperativity with ACh)” value is listed as 562 and the “τB (intrinsic efficacy of the modulator)” value was 6. Also, on hM1 mAChR [1] (setting [3]), the “log τB (logarithm of intrinsic efficacy of the modulator)” value is 0.78±0.04; the “log αβ” value was 2.75±0.11. The Kb on hM1 mAChR [2] (setting [4]) is 6.03 µM. The “α (binding cooperativity with ACh)” value at hM1 mAChR [2] (in parentheses) amounted to 380. In addition, the “log αACh (logarithm of binding cooperativity between ACh and modulator)” value at hM1 mAChR [2] (mean ± SEM) is 2.58±0.18. Further, on M1 mAChR (antilog, in parentheses), the “αβ (functional cooperativity with ACh)” value was 955 and the “τB (intrinsic efficacy of the modulator)” value is on record as 1. Further, at M1 mAChR (operational model), the “log τB (logarithm of intrinsic efficacy of the modulator)” value worked out at 0.07±0.05; the “log αβ” value is listed as 2.98±0.10.
